From patent US20120193574A1, “Method Of Controlling Crystallization” (University of Durham, priority 2009, published 2012)
“Also recorded” adds a separate entry of the source. Blank lines part the entries; values can stand above or below the molecule they belong to.

Tests used:
[1] = Crystallisation in microemulsions under confinement; polymorph of the crystals by FTIR, TEM electron diffraction or Raman; assay type: physicochemical
Procedure: Nanocrystals within the microemulsions were analysed by placing drops of the microemulsion onto TEM holey carbon grids and placing in a TEM. Nanocrystal images were taken and selected area electron diffraction patterns from the nanocrystals were captured, from which their polymorphic form could be determined.
Crystals/crystal aggregates were typically extracted via filtration. X-ray diffraction and/or FTIR and/or Raman microscopy techniques were used to determine the polymorph(s) of the extracted crystals/crystal aggregates.
A glycine microemulsion was prepared at ambient temperature containing 4.2 g heptane, 2.8 g of a 1:1 mass ratio of Span 80 and Brij 30, and 0.25 g of glycine solution containing 4% by mass of glycine in water. The microemulsion was shaken by hand to ensure homogeneous mixing. To this was added a microemulsion containing 1.8 g heptane, 2.8 g of a 1:1 mass ratio of Span 80 and Brij 30, 1 g of methanol and 0.25 g of water, with subsequent shaking to ensure homogeneous mixing. The resulting supersaturation ratio (c/csat) was 2.3. The resultant microemulsion was left to stand for 3 weeks at 25° C. […]
ROY microemulsions were prepared at ambient temperatures containing 10% by mass of Igepal CA720 in water and 30 μl/g or 60 μl/g of a ROY in toluene solution containing between 8% to 10% by mass of ROY. […] The crystals/crystal aggregates were extracted by filtration. […]

[2] = Supersaturated solutions stabilised due to confinement in microemulsions; visual inspection or optical microscopy on standing; assay type: physicochemical
Procedure: Glycine microemulsions prepared at ambient temperature containing 4.2 g heptane, 2.8 g of a 1:1 mass ratio of Span 80 and Brij 30, and 0.25 g of glycine solution containing 3-3.5% by mass of glycine in water. The microemulsion was shaken by hand to ensure homogeneous mixing. To this was added a microemulsion containing 1.8 g heptane, 2.8 g of a 1:1 mass ratio of Span 80 and Brij 30, 1 g of methanol and 0.25 g of water, with subsequent shaking to ensure homogeneous mixing. The resulting supersaturation ratio (c/csat) was at 1.7-2.0, i.e. sufficient to cause fast crystallisation of metastable forms in an unconfined system.
Glycine microemulsions prepared at 50° C. containing hexadecane, 15% by mass of a 1:1 mass ratio of Span 20 and Span 80, 1% by mass of ethanol and 1% by mass of a glycine aqueous solution containing 2.5% by mass of glycine. The microemulsion was placed in a water bath at 50° C. and cooled to 26° C. over 24 hours. The resulting supersaturation ratio (c/csat) was at least 4, i.e. sufficient to cause rapid crystallisation in an unconfined system.
ROY microemulsions prepared at ambient temperatures containing 10% by mass of Igepal CA720 in water, 30 μl/g of a toluene solution containing 6% by mass of ROY and 12 μl/g of heptane. The resulting supersaturation ratio (c/csat) was at least 4, i.e. sufficient to cause crystallisation typically within a few hours in an unconfined system.
The mefenamic acid-in-DMF bulk solutions and microemulsions, were prepared at elevated temperature (˜50-60° C.). The microemulsion consisted of 3 g of AOT solution containing 3% by mass of AOT in heptane to which was added 20 μl of a mefenamic acid solution containing 70-75 mg of mefenamic acid per ml DMF. The microemulsion was cooled from 50 to 8° C. over 12 hours and then left at 8° C. The resulting supersaturation ratio (c/csat) was 3.9-4.1, i.e. sufficient to cause crystallisation of metastable form II typically within a few hours in an unconfined system.

[3] = cited from earlier work

- resulting supersaturation ratio (c/csat) ([1]; Example 1: 4% by mass glycine solution in heptane/Span 80/Brij 30 microemulsion plus methanol antisolvent microemulsion): 2.3
- resulting supersaturation ratio (c/csat) ([2]; 2.5% by mass glycine solution, hexadecane/Span 20/Span 80 microemulsion cooled 50 to 26° C. over 24 hours): at least 4
- crystals by visual inspection or optical microscopy on standing ([2]; 2.5% glycine solution, hexadecane/Span 20/Span 80 microemulsion cooled to 26° C., after 1 month): No crystals were observed
- resulting supersaturation ratio (c/csat) ([2]; 3-3.5% by mass glycine solution, heptane/Span 80/Brij 30 microemulsion plus methanol microemulsion): 1.7-2.0
- crystals by visual inspection or optical microscopy on standing ([2]; microemulsion from 3% by mass glycine in water, after 3 months): No crystals were observed
- crystals by visual inspection or optical microscopy on standing ([2]; microemulsion from 3.5% glycine in water, after 3 months): only a few μm sized crystals apparent
Molecule: NCC(=O)O [glycine]
- polymorph of extracted crystals (FTIR) ([1]; Example 1: methanol antisolvent microemulsion added, c/csat 2.3, 3 weeks at 25° C.): predominantly of γ-glycine; also recorded: stable γ-polymorph of glycine with virtually no α-polymorph
- polymorph of nanocrystals/nanocrystal aggregates (TEM) ([1]; Example 2: hexadecane/Span 20/Span 80 microemulsion, 7% glycine solution, cooled 50 to 25° C. over 24 hours, after 7 days): predominantly of γ-glycine; also recorded: hexagonal γ-polymorph of glycine
- polymorph of crystals/crystal aggregates (FTIR) ([1]; Example 3: heptane/Span 80/Brij 30 microemulsion, 4% glycine solution, vapour diffusion of methanol, ambient temperature): predominantly the γ-polymorph of glycine with some α-polymorph
- temperatures at which the γ-phase is the most stable ambient pressure form ([3]; ambient pressure): < 165 °C
- energy of γ-phase below the α-phase ([3]; ambient temperatures): ~0.2 kJ/mol
- energy of γ-phase below the β-phase ([3]; ambient temperatures): ~0.6 kJ/mol
- stability of γ-polymorph over α-polymorph in the bulk phases ([3]; bulk phases): ~0.2 kJ/mol

- resulting supersaturation ratio (c/csat) ([1]; Example 4: 80-100 mg mefenamic acid per ml DMF in AOT/heptane microemulsion cooled from 50 to 8° C.): 4.4-5.5
- resulting supersaturation ratio (c/csat) ([2]; 70-75 mg mefenamic acid per ml DMF in AOT/heptane microemulsion cooled from 50 to 8° C.): 3.9-4.1
- crystals by visual inspection or optical microscopy on standing ([2]; 70-75 mg/ml mefenamic acid in DMF, AOT/heptane microemulsion at 8° C., after 1 month): No crystals were observed
Molecule: Cc1cccc(Nc2ccccc2C(=O)O)c1C [mefenamic acid]
- polymorph of crystals (Raman) ([1]; Example 4: DMF-in-heptane/AOT microemulsion cooled from 50 to 8° C. over 12 hours): predominantly of Form I; also recorded: characteristic Form I peaks
- polymorph from crystallization in bulk DMF ([3]; irrespective of rate of crystallization or crystallization temperature): only produces the metastable form II

- polymorph of crystals/crystal aggregates (FTIR) ([1]; Example 5: Igepal CA720/water microemulsion, 8% to 10% ROY in toluene, dropwise heptane antisolvent, ambient): yellow prism polymorph of ROY
- crystals by visual inspection or optical microscopy on standing ([2]; 6% ROY in toluene, Igepal CA720/water microemulsion with heptane, after 1 month): No crystals were observed
- resulting supersaturation ratio (c/csat) ([2]; 6% by mass ROY in toluene, 30 μl/g, Igepal CA720/water microemulsion, 12 μl/g heptane): at least 4
Molecule: Cc1cc(C#N)c(Nc2ccccc2[N+](=O)[O-])s1 [ROY, 5-Methyl-2-[(2-nitrophenyl)amino]-3-thiophenecarbonitrile]
- energy of yellow prism form below the orange needle and orange prism forms ([3]; ambient temperatures): ~0.3 kJ/mol

B1: egg white albumin: Albumin is used to exemplify how protein crystallisation can be achieved (protein, UniProt P01012 2-386, looked up)
Ovalbumin: GSIGAASMEFCFDVFKELKVHHANENIFYCPIAIMSALAMVYLGAKDSTRTQINKVVRFDKLPGFGDSIEAQCGTSVNVHSSLRDILNQITKPNDVYSFSLASRLYAEERYPILPEYLQCVKELYRGGLEPINFQTAADQARELINSWVESQTNGIIRNVLQPSSVDSQTAMVLVNAIVFKGLWEKAFKDEDTQAMPFRVTEQESKPVQMMYQIGLFRVASMASEKMKILELPFASGTMSMLVLLPDEVSGLEQLESIINFEKLTEWTSSNVMEERKIKVYLPRMKMEEKYNLTSVLMAMGITDVFSSSANLSGISSAESLKISQAVHAAHAEINEAGREVVGSAEAGVDAASVSEEFRADHPFLFCIKHIATNAVLFFGRCVSP
- crystallisation observed by optical microscopy ([1]; Example 6: isooctane/AOT microemulsion, 5 mg albumin per ml water, methanol microemulsion added, after 48 hours): crystals observed
